Results from patent publication US8183230B2, “Antimicrobial preservatives to achieve multi-dose formulation using beta-cyclodextrins for liquid dosage forms” (priority 2004, dated 2012).
Entries after “also recorded” stand apart in the source; their conditions may differ. Like-named read-outs stand apart in the source and are kept apart here.

Assays:
[1] = for IST: Study A, compound of Formula Ia at 10 mgA/mL
Experimental: Injection site toleration was measured by inspecting the patient for signs of reaction, including erythema (size); skin thickening (size), pain on palpation and edema. Table VI provides a detailed explanation of the scoring system: a score of 0 (no reaction) to 4 (severe reaction) was given for each characteristic and each injection site daily.
Compound of Formula Ia formulations were evaluated for injection site toleration (hereinafter “IST”).
Formulations were tested in groups of 4 dogs comprised of beagles and mongrels. […] Dogs were observed daily for evidence of reaction at the injection site and a score of 0-4 (see Table VI) was given for each of the following parameters: pain on injection, erythema, tissue thickening, pain on palpation and edema. Dogs were observed daily until day 5 (24 hours after the last dose).

[2] = system: Escherichia coli, Pseudomonas aeruginosa, Staphylococcus aureus, Candida albicans, Aspergillus niger; assay: Hybrid USP/Ph. Eur. antimicrobial effectiveness test (AET); assay type: cell-based; conditions: for AET Results Ph. Eur. Criteria A: Study A, compound of Formula Ia at 10 mgA/mL, cells without ✓ print organism (time point); for Ph. Eur. criteria B: leads of Study B; for USP/Ph. Eur. requirements (initial results of preliminary screen): multidose compound of Formula Ia formulation with SBE-CD
Experimental: Preparation of Preserved Formulations. […] Antimicrobial preservatives with optimal activity at a pH outside the nominal formulation value (pH 4.4) were titrated to either 3.5 or 5.0 using 1 N HCl or 1 N NaOH. A stock solution of either 10% or 5% (weight/volume) SBE-CD containing 10 mgA/mL of the compound of Formula Ia citrate was prepared. Preservative was added to the respective formulation on a weight basis.
Antimicrobial Efficacy Testing. A hybrid USP […]/Ph. Eur. 2000 antimicrobial effectiveness test (AET) was performed, as follows: 20 mL of drug product was individually inoculated with 0.1-0.2 mL of bacterial or fungal culture, per USP/Ph. Eur. compendial requirements. The final concentration of organisms in the test sample was between 1×10^5 and 1×10^6 cfu/mL. At initial 6 hr, 24 hr, 7 day, 14 day, and 28 day time intervals, 1 mL of the inoculated product was transferred into 9 mL of a recovery diluent, that was validated to confirm neutralization of the antimicrobial preservative. One mL of the diluted sample was then transferred to a sterile petri dish and combined with 15-20 mL of an agar broth to culture the organisms. Plates were then incubated for 3 to 5 days, upon which colonies were counted. Initial organism contamination was then calculated based on dilution of the initial sample.
Generally, the USP test requirements are less stringent than Ph. Eur. requirements, which typically have an immediate bacteriocidal activity requirement. The Ph. Eur. requirements shown in Table III have either a “Criteria A” or “Criteria B” specification depending on the rate of microorganism reduction, with criteria A requiring an increased bacteriocidal rate. In order to meet the combined hybrid assay, the initial inoculum count of microorganisms needed to be reduced by the amounts listed in Table V.

[3] = Stability measurements (accelerated stability); conditions: for ACCEPTABLE STABILITY: 10 mgA/mL compound of Formula Ia
Experimental: Stability Measurements. Potential lead formulations were evaluated under various accelerated stability conditions in order to assess potency and purity of compound of Formula Ia, preservative content and SBE-CD content. For example, in one accelerated stability study, potential lead formulations were placed in stability ovens to measure short-term thermal stability. […] Purity and potency assays to measure compound of Formula Ia, as well as antimicrobial preservatives and SBE-CD content, were performed using validated HPLC methodology. SBE-CD was assayed using GTP 5984.

[4] = system: Escherichia coli, Pseudomonas aeruginosa, Staphylococcus aureus, Candida albicans, Aspergillus niger; conditions: as indicated by literature; cited from earlier work
[5] = compound of Formula Ia formulations solubilised with cyclodextrin
[6] = pH: 4.2, SBE-CD: 10%, preservative content 0.2%
[7] = preserved compound of Formula Ia/SBE-CD formulations
[8] = pH: 4.4, SBE-CD: 5%, ethanol 15%
[9] = pH: 4.4, SBE-CD: 10%, content: ethanol 15%, meta-cresol 0.3%, propylene glycol 50%, thimerosal 0.01

Compound: 2-hydroxypropyl-β-cyclodextrin
- injection site toleration [1, 5]: acceptable injection site toleration

Compound: O=C(O)c1ccccc1 [Benzoic acid, Benzoic Acid]
- AET Results Ph. Eur. Criteria A [2, 6]: c. alb (7 d); also recorded: s. aur (6, 24 hr)
- reducing the microorganisms ([2]; after 7 days): ineffective
- Ph. Eur. criteria B [2]: met criteria B
- IST [1, 6]: Poor
- pain on injection ([1]; preserved compound of Formula Ia formulation): moderate to severe pain on injection
- injection site toleration [1, 7]: poor IST results
- loss of preservative ([3]; over 12 weeks at 70° C. storage): no detectable loss
- ACCEPTABLE STABILITY ([3]; pH 4.2, 10% SBE-CD): ✓
- USP and Ph. Eur. criteria A or B requirements [4]: met both the USP and either Ph. Eur. criteria A or B requirements

Compound: CCO [Ethanol]
- AET Results Ph. Eur. Criteria A [2, 8]: a. niger (7 d)
- AET Results Ph. Eur. Criteria A [2, 9]: s. aur (6 hr)
- USP/Ph. Eur. requirements (initial results of preliminary screen) [2]: satisfied USP/Ph. Eur. requirements
- IST [1, 8]: Poor
- IST [1, 9]: Poor
- ACCEPTABLE STABILITY ([3]; pH 4.4, 5% SBE-CD): ✓
- USP and Ph. Eur. criteria A or B requirements [4]: met both the USP and either Ph. Eur. criteria A or B requirements

Compound: CC(O)CO (stereo not shown) [Propylene glycol]
- activity against the fungi [2]: ineffective against the fungi
- USP/Ph. Eur. requirements (initial results of preliminary screen) [2]: satisfied USP/Ph. Eur. requirements
- activity against bacteria ([2]; with and without SBE-CD): active against bacteria only in the presence of SBE-CD
- USP and Ph. Eur. criteria A or B requirements [4]: met both the USP and either Ph. Eur. criteria A or B requirements

Compound: C[CH2][Hg][S]c1ccccc1C(=O)[O-].[Na+] [Thimerosal]
- Ph. Eur. criteria B [2]: met criteria B
- USP/Ph. Eur. requirements (initial results of preliminary screen) [2]: satisfied USP/Ph. Eur. requirements
- IST [1, 9]: Good
- injection site toleration [1, 7]: good injection site toleration
- stability in the formulation (in words) [3]: commercially undesirable
- Stability ([3]; Study A, pH: 4.4, SBE-CD: 10%, thimerosal 0.01, compound of Formula Ia at 10 mgA/mL): 1 wk/70
- preservative remained in the formulation ([3]; after 1 week at 70° C. storage): 30%
- loss of preservative ([3]; after 6 weeks, 70° C. storage): complete loss
- USP and Ph. Eur. criteria A or B requirements [4]: met both the USP and either Ph. Eur. criteria A or B requirements

Compound: Sulfobutylether-βcyclodextrin [SBE-CD]
- injection site toleration [1, 5]: acceptable injection site toleration
